Reference: patent US8318778B2, “Urea glucokinase activators” (Novo Nordisk A/S, priority 2007, dated 2012)

Target: T1, recombinant human glucokinase (Homo sapiens, UniProt P35557)
T1 construct: N-terminal His-tag ((His)8-VEQILA . . . Q466); made in house; host or cells: E. coli
T1 sequence (P35557 17-466 isoform P35557-2): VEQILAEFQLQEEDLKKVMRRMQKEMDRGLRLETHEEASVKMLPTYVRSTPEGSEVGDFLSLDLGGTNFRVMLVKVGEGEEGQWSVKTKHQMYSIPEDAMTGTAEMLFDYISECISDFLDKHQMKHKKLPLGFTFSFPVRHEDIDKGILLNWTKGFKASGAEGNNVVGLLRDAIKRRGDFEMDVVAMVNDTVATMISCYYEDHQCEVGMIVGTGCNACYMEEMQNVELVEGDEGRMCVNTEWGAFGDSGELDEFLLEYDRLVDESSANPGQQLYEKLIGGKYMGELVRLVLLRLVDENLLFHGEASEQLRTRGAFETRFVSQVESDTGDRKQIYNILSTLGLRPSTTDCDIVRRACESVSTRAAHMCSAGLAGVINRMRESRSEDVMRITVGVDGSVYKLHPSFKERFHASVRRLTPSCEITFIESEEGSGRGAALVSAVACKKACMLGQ
Assay: Glucokinase Activity Assay (I): spectrometric assay coupled to glucose 6-phosphate dehydrogenase
Assay type: biochemical
Conditions: 15 mM glucose
Experimental: Glucokinase activity is assayed spectrometrically coupled to glucose 6-phosphate dehydrogenase to determine compound activation of glucokinase. The final assay contains 50 mM Hepes, pH 7.1, 50 mM KCl, 5 mM MgCl2, 2 mM dithiothreitol, 0.6 mM NADP, 1 mM ATP, 0.195 μM G-6-P dehydrogenase (from Roche, 127 671), 15 nM recombinant human glucokinase.
The purification of His-tagged human glucokinase (hGK) was performed as follows: The cell pellet from 50 ml E. coli culture was resuspended in 5 ml extraction buffer A (25 mM HEPES, pH 8.0, 1 mM MgCl2, 150 mM NaCl, 2 mM mercaptoethanol) with addition of 0.25 mg/ml lysozyme and 50 μg/ml sodium azide. […]
The compound to be tested is added into the well in final 2.5% DMSO concentration in an amount sufficient to give a desired concentration of compound, for instance 1, 5, 10, 25 or 50 μM. […] The plate is incubated at 25° C. for 5 min and kinetics is measured at 340 nm in SpectraMax every 30 seconds for 5 minutes. Results for each compound are expressed as the fold activation of the glucokinase activity compared to the activation of the glucokinase enzyme in an assay without compound after having been subtracted from a “blank”, which is without glucokinase enzyme and without compound. […]
The glucose sensitivity of the compounds are measured at a compound concentration of 10 μM and at glucose concentrations of 5 and 15 mM.

Q: How did the EC50 turn out when `C[C@H]1CC[C@H](N(CC(F)(F)c2ccccc2)C(=O)Nc2ncc(SCC(=O)O)s2)CC1` [Example 83, {2-[3-(2,2-Difluoro-2-phenyl-ethyl)-3-(trans-4-methyl-cyclohexyl)-ureido]-thiazol-5-ylsulfanyl}-acetic acid] was run?
A: The EC50 was 289 nM.

Q: And the “FA (15 mM)” value (fold activation of glucokinase activity vs assay without compound)?
A: Its value is 2.1.
